Results reported in patent US20230310537A1, “TREATMENT OF VASCULAR EHLERS-DANLOS SYNDROME AND RELATED SYNDROMES” (The Johns Hopkins University, priority 2020, published 2023).
“Also recorded” adds a separate entry of the source.

Columns and labels:
BL6 Col3a1^G938D/+ mice = assay: Kaplan-Meier survival / vascular rupture of drug-treated BL6 vEDS mice; format: in vivo; conditions: for elevated risk of rupture caused by the p38 inhibitor, under concomitant treatment (Kaplan-Meier survival): BL6 Col3a1^G938D/+ mice receiving SB203580 IP plus test drug (cobimetinib via drinking water, ruboxistaurin via chow) from weaning for 30 days, vs SB203580 alone
Excerpt: Mice were maintained either on a C57BL/6J background (#000664, The Jackson Laboratory) or on a 129S6/SvEvTac background (#129SVE, Taconic Biosciences). Mice were considered to be 129S6/SvEvTac after backcrossing for a minimum of 4 generations. F1 and mixed mice were generated by interbreeding pure C57BL/6J and 129S6/SvEvTac mice. To identify the dominant genetic locus, mixed background wild-type females were bred to Col3a1^G938D/+ male mice on a pure BL6 background. Mice haploinsufficient or knockout for Map2k6 were originally obtained from the Jackson Laboratory (#008382) and backcrossed in the lab for a minimum of 10 generations. Restriction enzymes were used to detect the presence or absence of the Col3a1 mutation. The G209S mutation leads to the loss of an AvaII cut site and the G938D mutation leads to the gain of a BamHI cut site (AvaII R0153L; BamHI-HF R3136S, New England Biolabs). All mice found dead were assessed for cause of death by necropsy, noting in particular hemothorax and hemoperitoneum.
(§1) For drug trials in the Col3a1/^G938D/+ mice, mice were initiated on medication at weaning and continued until the end of the trial. Cobimetinib (GDC-0973/R0551404, Active Biochem) was dissolved in drinking water and filtered to reach a final concentration of 0.02 g/L giving an estimated dose of 2 mg/kg/day. Ruboxistaurin (LY333531 HCl, Selleck Chemicals) was mixed with powdered food (LabDiet) to give a concentration of 0.1 mg/g giving an estimated dose of 8 mg/kg/day. SB203580 (Selleck Chemicals) was administered at a dose of 5 mg/kg/d every 3 days by intraperitoneal injection. Animals receiving placebo (5% Tween in PBS) were also injected every 3 days by intraperitoneal injection.
Kaplan-Meier survival curves were compared using a log-rank (Mantel-Cox) test. Mice were censored only if unrelated to the outcome, such as for planned biochemical or histologic analysis or if the authors were directed to euthanize them by animal care staff, for malocclusion, fight wounds, or genital prolapse.

pERK1/2 = assay: Western blot of pERK1/2 in proximal descending aortas of treated vEDS mice; format: in vivo; conditions: aortas of Col3a1^G938D/+ mice, SB203580 treated vs placebo treated; p<0.01
Procedure: (§2) Protein was extracted using an automatic bead homogenizer in conjunction with a Protein Extraction Kit (Full Moon Biosystems). All protein lysis buffers contained both PhosSTOP and Complete™, Mini, EDTA-free Protease Inhibitor Cocktail (Roche). Western blotting was performed using LI-COR buffer and species appropriate secondary antibodies conjugated to IR-dye700 or IRdye-800 (LI-COR Biosciences), according to the manufacturer's guidelines and analyzed using LI-COR Odyssey. The following primary antibodies were used: anti-β-Actin (8H10D10) (Cell Signaling Technology, 3700), anti-phospho ERK1/2 (Cell Signaling Technology, 4370), anti-PKCβ (phospho 5660) (Abcam, 75837), anti-phospho p38 (Cell Signaling Technology, 4511).
as §1, with “Animals receiving placebo (5% Tween in PBS) were also injected every 3 days by intraperitoneal injection.” left out

pPKCβ = assay: Western blot of pPKCβ in proximal descending aortas of treated vEDS mice; format: in vivo; conditions: aortas of Col3a1^G938D/+ mice, SB203580 treated vs placebo treated; p<0.01
Procedure: as §2
as §1, with “Animals receiving placebo (5% Tween in PBS) were also injected every 3 days by intraperitoneal injection.” left out

[1] = system: severe (Col3a1 G938D/+) and mild (Col3a1^G209S/+) mouse models of vEDS; conditions: either vEDS mouse model; interventions that inhibit PKC/ERK activation; cited from earlier work
MFS mice = conditions: therapies that attenuate TGF-β signaling and related pathways; cited from earlier work

Structure (SMILES) | aortic disease rupture risk [1] | elevated risk of rupture caused by the p38 inhibitor, under concomitant treatment (Kaplan-Meier survival) (BL6 Col3a1^G938D/+ mice) | other results
C[S+]([O-])c1ccc(-c2nc(-c3ccncc3)c(-c3ccc(F)cc3)[nH]2)cc1 (centres unmarked) [SB203580] | – | – | rate of death / vascular rupture risk (Kaplan-Meier survival vs placebo) (BL6 Col3a1^G938D/+ mice; BL6 Col3a1^G938D/+ mice, IP injection every 3 days starting at weaning, continuing for 40 days, Log-Rank p<0.01): significantly increased the rate of death; also recorded: increases vascular rupture risk; ERK activation (pERK1/2 levels normalized to β-actin) (pERK1/2): increase; PKC activation (pPKCβ levels normalized to β-actin) (pPKCβ): increase
O=C(c1ccc(F)c(F)c1Nc1ccc(I)cc1F)N1CC(O)([C@@H]2CCCCN2)C1 [cobimetinib] | rescue aortic disease rupture risk | rescued | –
CCCCc1nc(Cl)c(CO)n1Cc1ccc(-c2ccccc2-c2nn[nH]n2)cc1 [losartan] | – | – | aortic disease (MFS mice): suppress aortic disease
CN(C)C[C@@H]1CCn2cc(c3ccccc32)C2=C(C(=O)NC2=O)c2cn(c3ccccc23)CCO1 [ruboxistaurin] | rescue aortic disease rupture risk | rescued | –
